The term IC50 denotes the concentration that inhibits the measured activity by half.

Chain of kappa opioid receptor (OPRK1) (P41145 whole entry): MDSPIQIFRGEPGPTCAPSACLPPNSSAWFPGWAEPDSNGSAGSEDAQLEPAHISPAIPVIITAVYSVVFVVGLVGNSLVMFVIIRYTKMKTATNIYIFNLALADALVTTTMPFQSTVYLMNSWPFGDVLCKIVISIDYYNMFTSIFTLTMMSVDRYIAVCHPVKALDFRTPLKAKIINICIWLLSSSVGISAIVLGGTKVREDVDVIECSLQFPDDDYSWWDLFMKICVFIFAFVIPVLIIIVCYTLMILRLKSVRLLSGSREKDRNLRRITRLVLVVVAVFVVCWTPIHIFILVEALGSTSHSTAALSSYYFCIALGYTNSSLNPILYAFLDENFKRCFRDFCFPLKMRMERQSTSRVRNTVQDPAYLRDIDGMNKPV

This experiment addresses kappa opioid receptor (OPRK1) (Homo sapiens (Human), UniProt P41145). In words: OPRK1 antagonist assay (b-arrestin-2-TEV / b-lactamase reporter cell line, EC80 U-50488 challenge). The format is cell-based. As to conditions: read-out: IC50 nM (% inhib if other than 50%); antagonist mode vs EC80 U-50488; NA = not active at concentrations up to 10 μM.
As to `CO[C@H]1CN(c2nc3cc(F)c(C)cc3cc2-c2nc(C)no2)CC[C@H]1NC1CCCCC1` [compound 496], the IC50 came to 54 nM. Turning to `CCOC(=O)c1cc(C)c(C)nc1N1CC[C@@H](NC2CCCCC2)[C@H](O)C1` [compound 153], the 50% inhibitory concentration (IC50) was found to be 191 nM. As for `Cc1noc(-c2cc3ccccc3nc2N2CCC(NC3CCOCC3)C(CO)C2)n1` (stereo not shown) [compound 198], the figure is 98 nM; as for `CCOC(=O)c1cc(Br)cnc1N1CC[C@@H](NC2CCCCC2)[C@H](O)C1` [compound 134], 23 nM; as for `CCOC(=O)c1noc(-c2cc3cc(C)ccc3nc2N2CCC(NC3CCCCC3O)CC2)n1` (stereo not shown) [compound 336], 4360 nM.

For the compound `CN(C)C(=O)c1cc(Br)cnc1N1CC[C@@H](NC2CCCCC2)[C@H](O)C1` [compound 138], the 50% inhibitory concentration (IC50) was determined as 3200 nM. Regarding `Cc1noc(-c2cc3ccc(F)c(C)c3nc2N2CCC(NC3CCCCC3)CC2)n1` [compound 491], the 50% inhibitory concentration (IC50) was 33 nM. The result for `COC1CN(c2nc3ccccc3cc2-c2nc(C)no2)CCC1NC1CCCCCC1` (stereo not shown) [compound 311] reads 1 nM. Turning to `CCc1noc(-c2cc3cc(C)ccc3nc2N2CC[C@@H](NC3CCCCC3)[C@@H](OC)C2)n1` [compound 297], the IC50 turned out to be 2 nM.

Consider `Cc1cnc(N2CCC(NC3CCCCC3)CC2)c(-c2ccc(C)o2)c1` [compound 499], for which the IC50 came out at 116 nM. As for `CCOC(=O)c1cc(C#N)c(C)nc1N1CCC(NC2CCCCC2)C(CO)C1` (stereo not shown) [C52], the figure is > 20000 nM; as for `CCc1noc(-c2cc(Br)cnc2N2CC[C@@H](NC3CCCCC3)[C@H](O)C2)n1` [compound 137], 1600 nM; as for `COC(=O)c1cccnc1N1CCC(NC2CCCCC2C)C(O)C1` (stereo not shown) [compound 53], 5600 nM. The result for `Cc1ccc2nc(N3CCC(NC4CCC(F)(F)CC4)CC3)c(-c3nc(C)no3)cc2c1` [compound 435] reads 6 nM; that for `COC(=O)c1cc(NC(C)=O)cnc1N1CCC(NC2CCCCC2)CC1` [compound 86], 628 nM.

For the compound `Cc1noc(-c2cc3ccccc3nc2N2CCC(NC3CCCCC3)CC2)n1` [compound 209], the half-inhibitory concentration (IC50) stood at 18 nM.

For the compound `CCc1noc(-c2cc3cc(C)ccc3nc2N2CCC(NC3CCOCC3)CC2)n1` [compound 290], the IC50 stood at 47 nM. Take `CC(=O)c1cc(Br)cnc1N1CCC(NC2CCCCC2)C(CO)C1` (stereo not shown) [compound 144]: the 50% inhibitory concentration (IC50) worked out at 4800 nM. With `OCC1CN(c2nc3ccccc3cc2-c2ncco2)CCC1NC1CCCCC1` (stereo not shown) [compound 226], the IC50 came out at 107 nM.

`Cc1ccc2nc(N3CCC(NC4CCCCC4)CC3)c(-c3ccc(C)o3)cc2c1` [compound 488]: the half-inhibitory concentration (IC50) is 19 nM. As for `Cc1ccc2nc(N3CCC(NC4CCOCC4)CC3)c(-c3noc(C)n3)cc2c1` [compound 332], the figure is 19 nM; as for `CO[C@H]1CN(c2nc3cccc(F)c3cc2-c2nc(C)no2)CC[C@H]1NC1CCCCC1` [compound 520], 19 nM.

As to `Cc1cnc(N2CCC(NC3CCCCC3)C(CO)C2)c(C=O)c1` (stereo not shown) [compound 216], the IC50 turned out to be 4500 nM.

With `Cc1nc(-c2cc3ccc(F)c(C)c3nc2N2CCC(N[C@H]3CCCC[C@@H]3O)CC2)no1` [compound 510], the 50% inhibitory concentration (IC50) came out at 115 nM. In the case of `CC(=O)c1cc(Br)cnc1N1CCC(NC2CCCCC2)C(O)C1` (stereo not shown) [compound 99], the 50% inhibitory concentration (IC50) amounted to 4500 nM. As for `Cc1noc(-c2cc3ccccc3nc2N2CCC(NC3CCCOC3)CC2)n1` (stereo not shown) [compound 235], the figure is 4 nM; as for `COC(=O)c1cc(I)cnc1N1CC[C@@H](NC2CCCCC2)[C@H](O)C1` [compound 106], 24 nM; as for `COC1CN(c2ncc(C(F)(F)F)cc2-c2nc(C)no2)CCC1NC1CCCCC1` (stereo not shown) [compound 174], 180 nM. The result for `CCc1noc(-c2cc(C)cnc2N2CCC(NC3CCCCC3)C(CO)C2)n1` (stereo not shown) [compound 171] reads 1100 nM; that for `COC(=O)c1cc(I)cnc1N1CCC(NC2CCCC2)C(O)C1` (stereo not shown) [compound 46], 25 nM; that for `Cc1ccc2nc(N3CCC(NC4CCCC4)CC3)c(-c3ccncn3)cc2c1` [compound 533], 263 nM.

Values taken from US20250346584A1, “NOVEL KAPPA OPIOID LIGANDS” (The Scripps Research Institute, priority 2012, published 2025).
